Reference: US20140271930A1, “NONINVASIVE METHOD FOR MEASURING METABOLITES FOR SKIN HEALTH” (priority 2013, published 2014)
Marks after values point to notes of the source that are not given here. Peptide text beside a SMILES is read from it.

Tested on: scalp of dandruff and non-dandruff subjects
Test: Metabolite expression profiling (LC/MS/MS, GC/MS/MS) of scalp D-Squame tape strip extracts: non-dandruff, dandruff baseline, dandruff after 3 weeks anti-dandruff shampoo
Format: in vivo, human
Details: for Fold Change Wk 3 Sel vs Dandruff Baseline / Fold Change Wk 3 ZPT vs Dandruff Baseline / Fold Change Wk 3 ZPT vs Non-Dan Baseline / Fold Change Wk 3 Sel vs Non-Dan Baseline: metabolite level in scalp tape strips; for Fold Change Wk 3 Sel vs Dandruff Baseline / Fold Change Wk 3 ZPT vs Dandruff Baseline: standardized to soluble protein; for Fold Change Wk 3 Sel vs Dandruff Baseline: dandruff subjects after 3 weeks 1% selenium sulfide shampoo vs own baseline; for Fold Change Wk 3 ZPT vs Dandruff Baseline: dandruff subjects after 3 weeks 1% zinc pyrithione shampoo vs own baseline; for Fold Change Wk 3 ZPT vs Non-Dan Baseline: dandruff subjects after 3 weeks 1% ZPT shampoo vs non-dandruff subjects; for Fold Change Wk 3 Sel vs Non-Dan Baseline: dandruff subjects after 3 weeks 1% selenium sulfide shampoo vs non-dandruff subjects
Description: In an embodiment, the use of an adhesive device can be used to achieve such sampling. In preparation for such a sampling study for a dandruff sampling, at a baseline visit, a qualified screening grader will complete adherent scalp flaking score (ASFS) grading for each subject and the highest flaking octant will be identified for tape strip sampling. The highest flaking octant will be sampled at baseline and at various time points during and after treatment with product. Tape strips samples will be collected from each subject at each time point (e.g., baseline and week 3).
The tape strip sampling procedure is repeated additional times, as needed, at the same site placing each D-Squame® tape disc on top of the prior sampled area. The D-Squame® tapes after sample collection are placed into the appropriately labeled wells in a labeled plate.
Following the sampling, an extraction and quantitation procedure is conducted. In an embodiment of the present invention, quantitation of small molecules from extracts of D-Squame® Tape Samples can be conducted via analysis by either LC/MS/MS or GC/MS/MS. In this embodiment of the present invention, the sample extraction in preparation for Metabolite expression profiling technology was performed.
The D-Squame® tape sample plates are removed from −80° C. freezer where they are stored following sample collection, and placed on dry ice. The tape strips are inserted into pre-labeled polypropylene collection tubes, adhesive side facing inward. Extraction buffer containing methanol and water is added to each collection tube and then extracted on ice using sonication for 15 min. If necessary, additional tapes are placed in the collection tube containing the extract solution and the extraction process is repeated as a means of concentrating the sample. Each extract solution is isolated from the tape strip and an aliquot of each sample is placed into a pre-labeled polypropylene collection tubes and frozen at −80° C. for metabolite expression profiling analysis. A separate aliquot is specified for soluble protein analysis using a BCA™ Protein Assay Kit. For this analysis, the aliquot consisting of methanol and water is taken to dryness under a gentle stream of nitrogen. The sample is resuspended in an appropriate aqueous buffer (e.g., PBS/SDS (1× PBS+0.2% SDS) and analyzed for soluble protein.
The extracts are analyzed by GC/MS/MS and LC/MS/MS in positive and negative ion mode. Chromatographic separation followed by full scan mass spectra and MS/MS spectra is carried out to record and quantify all detectable ions present in the samples. Metabolites with known chemical structure can be identified by matching the ions' chromatographic retention index and mass spectra fragmentation signatures with reference library entries created from authentic standard metabolites under the identical analytical procedure as the experimental samples. Welch's Two Sample t-tests and matched-pair t-tests are used to analyze the data. […] The statistical analyses are performed on natural log-transformed data to reduce the effect of any potential outliers in the data. Welch's Two Sample t-test comparisons are made between the means of each biochemical from the various groups listed at the top of the tables and are calculated using either or both of the statistical analysis software programs: Array Studio (Omicsoft, Inc) or “R” from the Free Software Foundation, Inc.
Subjects are evaluated by a qualified grader to establish their scalp status. Dandruff subjects are identified by their level of visible flaking as assessed by a qualified grader. Non-dandruff healthy scalp subjects are evaluated at baseline to establish normalized levels of each biomarker. In this study, there are 60 non-dandruff subjects that are evaluated at baseline. […] They are evaluated at baseline, and after 3 weeks of product usage.

[1] = dandruff subjects after 3 weeks treatment with Sel shampoo, metabolite level in scalp tape strip extract
[2] = dandruff subjects after 3 weeks treatment with ZPT shampoo, metabolite level in scalp tape strip extract
[3] = relative metabolite level in scalp tape strips, dandruff subjects after 3 weeks 1% ZPT shampoo
[4] = relative metabolite level in scalp tape strips, dandruff subjects after 3 weeks 1% selenium sulfide shampoo

| Compound | Mean Values WEEK 3 TRT Sel [1] | Mean Values WEEK 3 TRT ZPT [2] | reduction / decrease of metabolite level vs dandruff baseline (after three weeks ZPT shampoo) | decrease of metabolite level vs dandruff baseline (after three weeks selenium sulfide shampoo) | Fold Change Wk 3 Sel vs Dandruff Baseline | Fold Change Wk 3 Sel vs Dandruff Baseline (listed as 13-HODE+9-HODE) | Fold Change Wk 3 ZPT vs Dandruff Baseline | Fold Change Wk 3 ZPT vs Dandruff Baseline (listed as 13-HODE+9-HODE) | Fold Change Wk 3 ZPT vs Non-Dan Baseline | Fold Change Wk 3 Sel vs Non-Dan Baseline | Mean Values WEEK 3 TRT ZPT [3] | Mean Values WEEK 3 TRT Sel [4] |
| --- | --- | --- | --- | --- | --- | --- | --- | --- | --- | --- | --- | --- |
| CCCCCCCCCCCCCCCCC(=O)OCC(O)CO (stereo not shown) | 0.638 | 1.1274 | – | – | – | – | – | – | – | – | – | – |
| 13- and 9-hydroxyoctadecadienoic acid [13-HODE + 9-HODE] | 0.4182 | 0.4413 | 74% | 66% | 0.34* fold | 0.34 fold | 0.26*** fold | 0.26 fold | 0.5*** fold | 0.48* fold | – | – |
| CCCCCCCCCCCCCCC(O)C(=O)O (stereo not shown) [2-hydroxypalmitate] | 0.6696 | 0.8231 | – | – | 0.57* fold | – | 1.04 fold | – | 0.6* fold | 0.49* fold | – | – |
| O=C(O)C(O)Cc1ccc(O)cc1 (stereo not shown) [3-(4-hydroxyphenyl)lactate] | 0.7878 | 0.7551 | – | – | 0.44* fold | – | 0.7*** fold | – | 0.8 fold | 0.84 fold | – | – |
| CC(C)CCC[C@@H](C)[C@H]1CC[C@H]2[C@@H]3[C@H](O)C=C4C[C@@H](O)CC[C@]4(C)[C@H]3CC[C@]12C [7-alpha-hydroxycholesterol] | 0.9662 | 0.959 | – | – | – | – | – | – | – | – | – | – |
| CCCCCCC=CCCCCCCCCC(=O)O [10-heptadecenoate (17:1n7), 10-heptadecenoate] | 0.4139 | 0.7411 | – | – | 0.33* fold | – | 0.67*** fold | – | 0.52*** fold | 0.29* fold | – | – |
| CCCCCCCCC=CCCCCCCCCC(=O)O [10-nonadecenoate (19:1n9), 10-nonadecenoate] | 0.1901 | 0.4088 | – | – | 0.14* fold | – | 0.31* fold | – | 0.38* fold | 0.17* fold | – | – |
| CC(C)CCCCCCCCCCCCCC(=O)O [15-methylpalmitate] | 0.3813 | 0.485 | – | – | 0.31* fold | – | 0.4* fold | – | 0.35* fold | 0.27* fold | – | – |
| CC(C)CCCCCCCCCCCCCCCC(=O)O [17-methylstearate] | 0.273 | 0.4446 | – | – | 0.21* fold | – | 0.36* fold | – | 0.35* fold | 0.22* fold | – | – |
| OC[C@@H](O)C(O)[C@H](O)CO [Arabitol] | – | – | – | – | 0.73 fold | – | 0.61* fold | – | 0.65 fold | 1.07 fold | – | – |
| O=C(O)c1ccccc1 [Benzoate] | – | – | – | – | 7.26**** fold | – | 2.02**** fold | – | 2.16**** fold | 4.26**** fold | – | – |
| NCCO [Ethanolamine] | 1.7285 | 0.976 | – | – | 1.63**** fold | – | 1.08 fold | – | 2.53**** fold | 4.49** fold | – | – |
| O=C(O)/C=C/C(=O)O [Fumarate] | – | – | – | – | 0.37*** fold | – | 0.53 fold | – | 0.68 fold | 0.76 fold | – | – |
| NCCCC(=O)O [Gamma-aminobutyrate (GABA), Gamma-aminobutyrate] | – | – | – | – | – | – | – | – | – | – | 0.1343 | 0.1888 |
| N[C@@H](CCC(=O)N[C@@H](CCC(=O)O)C(=O)O)C(=O)O [Gamma-glutamylglutamate] | – | – | – | – | 0.95 fold | – | 1.89** fold | – | 2.09** fold | 1.11 fold | 1.7984 | 0.9586 |
| N[C@@H](CCC(=O)O)C(=O)O [Glutamate] | – | – | – | – | – | – | – | – | – | – | 0.7627 | 1.0169 |
| NCC(=O)O [Glycine] | – | – | – | – | – | – | – | – | – | – | 0.7968 | 0.8645 |
| CC(C)CCC[C@@H](C)[C@H]1CC[C@H]2C3=CC[C@H]4C[C@@H](O)CC[C@]4(C)[C@H]3CC[C@]12C [Lathosterol] | 0.9469 | 0.7479 | – | – | – | – | – | – | – | – | – | – |
| CC(C)C[C@H](N)C(=O)N[C@@H](CCC(=O)O)C(=O)O [Leucylglutamate] (H-Leu-Glu-OH) | 0.9581 | 0.874 | – | – | 0.81* fold | – | 1.13 fold | – | 0.93 fold | 1.02 fold | – | – |
| CCCC/C=C\CCCCCCCC(=O)O [Myristoleate (14:1n5), Myristoleate] | 0.6261 | 0.8341 | – | – | 0.53*** fold | – | 0.8*** fold | – | 0.6* fold | 0.45* fold | – | – |
| Cn1cc(C(N)=O)ccc1=O [N1-Methyl-2-pyridone-5-carboxamide] | 0.8271 | 1.1768 | – | – | 0.89 fold | – | 1.57 fold | – | 0.76 fold | 0.54* fold | – | – |
